No end group written: not given here.
Assays:
[1] = cited from earlier work; for antimicrobial activity at high NaCl concentrations: background statement of the introduction
Excerpt: Defensins exert their killing activity against bacteria, yeasts, fungi, and viruses. The activity of antimicrobial peptides involves the initial electrostatic binding to the cell membrane of microorganisms and subsequent incorporation into the membrane. This antimicrobial action induces damage or even destruction of the microbial cell membrane via pore formation. […] We previously reported the killing activity of β-defensin ...

[2] = system: H. pylori (ATCC49503 (tox+ strain 60190)); assay: CFU assay of antimicrobial activity against H. pylori, with salt dependence; assay type: cell-based, Helicobacter pylori
Procedure: CFU assays of the antimicrobial activities of HBDs against H. pylori (ATCC49503 (tox+ strain 60190); American Type Culture Collection, ATCC) were performed. The toxin-producing H. pylori strain was revived from frozen stocks by seeding on a blood agar plate (7% horse blood) at 37°C for 3 days in microaerophilic conditions (O2:10% and […]) generated with Anaeropack Campylo (Mitsubishi Gas Chemicals Corp.). Bacteria harvested from the plates were suspended in 200 ml of brain heart infusion broth (10% fetal calf serum) and grown in liquid culture at 37°C for three days while shaking in a monitored microaerophilic atmosphere.
H. pylori was incubated with HBDs for two hours at 37°C. Two concentrations of peptides (2.5 μM and 12.5 μM) were used. For the salt dependence assay, 0, 50, 100, and 200 mM concentrations of NaCl were added in the incubation buffer as previously described. Each assay was done in triplicate.
Antimicrobial activity of HBD2-4 and the analogs 3N and 3NI was evaluated on H. pylori, cultured on HP agar for 4 d after a […] pre-incubation with or without chemically synthesized HBD-2-4 and 3N and 3NI analogs. The two peptide sequences are derived from HBD1 and HBD3. 3N analog is the HBD3 sequence without the N-terminal domain that HBD1 lacks.
We evaluated two concentrations of every peptide (2.5 and 12.5 μM) and 4 NaCl concentrations (0, 50, 100, and 200 mM). Antibacterial activity of 3NI against H. pylori started at concentrations as low as 2.5 μM in the presence of at least 200 mM NaCl.

In the case of “ELDRIC^1GYGTARC^2RKK-C^3RSQEYRIGRC^4PNTYAC^5C^6LRK (bicyclic or more) [HBD4, human beta-defensin 4, purchased from Peptides International]”, the “antimicrobial activity at high NaCl concentrations” value (shortened to “antimicrobial activity”) [1] is listed as “reduced by high NaCl concentrations”.

In the case of “GIGDPVTC^1LKSGAIC^2HPVFC^3PRRYKQIGTC^4GLPGTKC^5C^6KKP (bicyclic or more) [HBD2, human beta-defensin 2, purchased from Peptides International]”, the “antimicrobial activity” value [1] is given as “reduced by high NaCl concentrations”.

In the case of “GIINTLQKYYC^1RVRGGRC^2AVLSC^3LPKEEQIGKC^4STRGRKC^5C^6RRKK (bicyclic or more) [HBD3, human beta-defensin 3, purchased from Peptides International]”, the “antimicrobial activity” value [1] is given as “still active up to 150 mM NaCl concentrations”.

In the case of “HBD1: human beta-defensin 1, constitutively synthesized; only mentioned in background, not tested here (DHYNCVSSGGQCLYSACPIFTKIQGTCYRGKAKCCK; not fully specified; ends and bridges not checked; UniProt P60022 33-68, looked up)”, the “antimicrobial activity” value [1] is given as “reduced by high NaCl concentrations”.

For “KYYC^1RVRGGRC^2AVLSC^3PIFTKIQGTC^4STRGRKC^5C^6RRKK (bicyclic or more) [3NI]”, the “antibacterial activity against H. pylori in contrast to wild-type peptides” value ([2]; 2.5 and 12.5 μM, 0, 50, 100 and 200 mM NaCl (Fig 4 title)) is given as “increased antibacterial activity”, the “concentration at which antibacterial activity against H. pylori started” value ([2]; in the presence of at least 200 mM NaCl, CFU assay, peptides tested at 2.5 and 12.5 μM, triplicate) is given as 2.5 µM and the “resistance of killing activity to high NaCl concentrations” value ([1]; earlier work of the authors) is given as “resistant to high NaCl concentrations”.

For “QKYYC^1RVRGGRC^2AVLSC^3LPKEEQIGKC^4STRGRKC^5C^6RRKK (bicyclic or more) [3N]”, the “antibacterial activity against H. pylori at 12.5 μM” value ([2]; 12.5 μM peptide, 0, 50, 100 and 200 mM NaCl, 3 independent experiments (Fig 4)) was “little antibacterial effect”.

Source: publication PMC6752957, “Beta-defensins and analogs in Helicobacter pylori infections: mRNA expression levels, DNA methylation, and antibacterial activity” (PLoS ONE, 2019)
